Measurements published in publication PMC9741454, “Selective Structural Derivatization of Flavonoid Acetamides Significantly Impacts Their Bioavailability and Antioxidant Properties” (Molecules, 2022).
“And” between values parts separate entries of the source, which are not always exact repeats. Identical values can stand only once.

Experiments:
[1] = In vitro bioavailability by dialysis tubing procedure (pepsin then pancreatin digestion); assay type: in vitro ADME; conditions: for % bioavailability after phase 1 (pepsin digestion) / % bioavailability after phase 2 (pancreatin digestion): in vitro, dialysis tubing, average of three trials ± SD; for % bioavailability after phase 1 (pepsin digestion): 2 h pepsin digestion, pH 1.0, 37 °C; for % bioavailability after phase 2 (pancreatin digestion): 4 h pancreatin digestion, pH 7.0, 37 °C; for Total in vitro bioavailability: sum of phase 1 and phase 2 % bioavailability; as to % bioavailability after phase 1 (pepsin digestion): tested at 69.8 µM
Method: The in vitro bioavailability studies of the flavonoid acetamide derivatives were done in simulated gastric and intestinal fluids using the dialysis tubing procedure, as previously reported. The procedure involves two consecutive digestion stages: phase 1, which is a 2-h pepsin-based digestion followed by phase 2, which is a 4-h pancreatin based digestion. This procedure was adopted from Chimento, Adele, et al. (2013) and Grande, Fedora, et al. (2016).
Phase 1: Pepsin digestion, 2 h
The flavonoid acetamide derivatives were dissolved in dimethyl sulfoxide (DMSO) to achieve a concentration of 1.00 × 10^−3 M. The porcine pepsin was prepared to achieve 2.40 × 10^4 U porcine pepsin per 1.00 × 10^−3 L of solution. The sodium cholate solution was prepared to attain a final concentration of 2.00 w/v% while hydrochloric acid was prepared at a concentration of 8.50 × 10^−1 N, for immediate use.
The pepsin digestion phase was completed in 120 min. Into an oven dried test tube, a 1.00 mL of the newly prepared porcine pepsin solution was added, followed by 300 µL of the flavonoid acetamide solution. These two solutions were mixed prior to the addition of 3.00 mL of a fresh batch of the sodium cholate solution. The resultant solution was appropriately mixed and transferred into a dialysis tubing, which was subsequently sealed on both ends. The dialysis tubing was immersed into a freshly prepared 0.85 N hydrochloric acid solution (pH 1.0). The flask and its contents were incubated in a shaking water bath at a regulated temperature of 37 ± 0.5 °C. After 120 min, 3.00 mL of the liquid in the flask was obtained for UV-Vis analysis. The dialysis tubing was carefully recovered and readied for the second stage of the experiment, phase 2. Each sample experiment was done in triplicates.
Phase 2: Pancreatin digestion, 4 h
The following solutions were prepared for immediate use: a solution containing 8.00 × 10^−1 N sodium bicarbonate with […] of porcine pancreatin per 1.00 mL of solution. The dialysis tubing recovered following the pepsin digestion was carefully opened on one end and for the addition of […] of esterase and 1.30 mL of the fresh batch of the NaHCO3 solution. These contents were appropriately mixed, and the dialysis tubing was suitably sealed and immersed in a flask with PBS buffer (at pH 7.0). The flask was incubated for 4 h, in a shaking water bath at a regulated temperature of 37 ± 0.5 °C. At the end of the experiment, a 3.00 mL sample of the liquid in the flask was obtained for UV-Vis analysis. All sample experiments in this phase were done in triplicates.
The calibration curve for each flavonoid acetamide derivative was prepared at both pH 1.0 and pH 7.0. The triplicate samples obtained from both phase 1 and phase 2 of the digestions were characterized using UV-Vis; the data obtained was applied to the equations obtained from the calibration curves to calculate the amount of the flavonoid acetamide derivatives in the recovered samples. The percentage (%) of the recovered flavonoid acetamide derivative for each sample after both pepsin digestion (phase 1) and pancreatin digestion (phase 2) was calculated relative to the total flavonoid content used. Thus, the (%) bioavailability was determined from Equation (1) below. (1) % Bioavailability=Recovered Content/Total Content×100
The total in vitro bioavailability was defined as the sum of the % bioavailability after phase 1 and % bioavailability after phase 2 of the digestion, as shown in Equation (2). The final reported in vitro bioavailability value was the average of the three trials ± the standard deviation. (2) Total Bioavailability=phase 1 bioavailability+phase 2 bioavailability
The bioavailability of the flavonoid acetamides was determined using our previously reported in vitro dialysis tubing procedure. […]

[2] = DPPH free radical scavenging assay; conditions: relative IC50, 30 min in the dark, absorbance at 517 nm, methanolic DPPH
Method: The stock solutions of the flavonoid acetamide derivatives were prepared in dimethyl sulfoxide. A fresh batch of 50 µM DPPH radical solution was prepared in methanol. The DPPH free radical scavenging activities of the flavonoid acetamide derivatives were determined using our previously reported literature procedure.
Into an amber vial, 1.00 × 10^2 µL solution of the flavonoid acetamide derivative in dimethyl sulfoxide was added into a 3.00 × 10^3 µL of a fresh batch of methanolic DPPH solution. This reaction mixture was incubated, away from light, for half an hour. The absorbance of the resultant solution was read on a UV-Vis spectrophotometer, λmax = 517 nm. This experiment was done across several concentrations to obtain the concentration-based antioxidant activity data which was subsequently used to calculate the relative half-maximal inhibitory concentration (IC50) values.
Given the observed variation of the stability of the DPPH free radical across different solvent vehicles, the stability of the DPPH free radicals was established in both methanol and dimethyl sulfoxide solvents. The percentage DPPH free radical scavenging activity of the flavonoid acetamide derivatives was computed against dimethyl sulfoxide, as per Equation (3). (3) % DPPH RSA=Absorbance of control−Absorbance of sample /Absorbance of control×100
Absorbance control is the absorbance of the blank methanolic DPPH sample with DMSO. The absorbance values were obtained at λmax = 517 nm.
The % RSA obtained was plotted and used to obtain the relative half-maximal inhibitory concentration (IC50) values, which were double confirmed using verified online computational tools.
The 2,2-diphenyl-1-picrylhydrazyl (DPPH) assay was used to evaluate the free radical scavenging capacity of the flavonoid acetamide derivatives. This assay is based on the colorimetric quantification of the DPPH free radicals. The reaction of the DPPH radicals with an antioxidant compound results in the loss of the DPPH free radical properties. The loss of the DPPH free radical properties is identifiable through a color change; a discoloration marked by the formation of a yellow color from the initial violet color. Slight antioxidant activity may be visually imperceptible; such a change may still be monitored spectrophotometrically through UV-Vis analysis at λmax = 517 [40, 44, 45].
The ability of the flavonoid acetamide derivatives to scavenge the DPPH free radicals is influenced by the concentration of both the flavonoid acetamide derivative and the DPPH free radicals, the reaction time, and presence of light during the reaction. The reaction time was set at 30 min and the concentration of the DPPH free radicals was […]. The concentration of the flavonoid acetamide derivatives was varied and the experiment was carried out in the dark. The actual concentration of the DPPH free radical before the addition of the flavonoid acetamide derivative was used as the standard for the purposes of the estimation of the DPPH free radical scavenging effect. The decrease in the DPPH free radical concentration upon the addition of the flavonoid acetamide derivative was used to calculate the antioxidant activity of the flavonoid acetamide derivatives. Thus, the greater the decrease in the DPPH free radical concentration, the higher the antioxidant activity. The antioxidant activity was expressed as the % RSA. […]

In the case of `NC(=O)COc1cc(O)c2c(=O)c(OCC(N)=O)c(-c3ccc(OCC(N)=O)c(OCC(N)=O)c3)oc2c1` [Compound 4, 2,2′-((4-(3,7-bis(2-amino-2-oxoethoxy)-5-hydroxy-4-oxo-4H-chromen-2-yl)-1,2-phenylene)bis(oxy))diacetamide], the “% bioavailability after phase 1 (pepsin digestion)” value [1] is reported as 6.70% and 6.70 ± 0.03%, the “% bioavailability after phase 2 (pancreatin digestion)” value [1] is reported as 9.26% and 9.26 ± 0.05% and the “Total in vitro bioavailability” value [1] is reported as 15.97% and 15.97 ± 0.04%. It also gave an IC50 [2] of 31.5 µM.

For `CCOC(=O)COc1cc(OCC(N)=O)cc2oc(-c3ccc(OCC(N)=O)c(OCC(N)=O)c3)c(OCC(N)=O)c(=O)c12` [Compound 5, ethyl 2-((3,7-bis(2-amino-2-oxoethoxy)-2-(3,4-bis(2-amino-2-oxoethoxy)phenyl)-4-oxo-4H-chromen-5-yl)oxy)acetate], the “% bioavailability after phase 1 (pepsin digestion)” value [1] was 11.52% and 11.52 ± 0.02%, the “% bioavailability after phase 2 (pancreatin digestion)” value [1] was 13.14% and 13.14 ± 0.01% and the “Total in vitro bioavailability” value [1] was 24.66% and 24.66 ± 0.01%. For the same compound, the IC50 [2] was 198 µM.

For `NC(=O)COc1cc(OCC(N)=O)c2c(=O)c(OCC(N)=O)c(-c3ccc4c(c3)OCCO4)oc2c1` [Compound 7, 2,2′,2″-((2-(2,3-dihydrobenzo[b][1,4]dioxin-6-yl)-4-oxo-4H-chromene-3,5,7-triyl)tris(oxy))triacetamide], the “% bioavailability after phase 1 (pepsin digestion)” value [1] was 16.11% and 16.11 ± 0.11%, the “% bioavailability after phase 2 (pancreatin digestion)” value [1] was 22.01% and 22.01 ± 0.21% and the “Total in vitro bioavailability” value [1] was 38.12 ± 0.16% and 38.12%. For the same compound, the IC50 [2] was 59.2 µM.

With `NC(=O)COc1ccc(-c2cc(=O)c3c(O)cc(OCC(N)=O)cc3o2)cc1` [Compound 11, 2-(4-(7-(2-amino-2-oxoethoxy)-5-hydroxy-4-oxo-4H-chromen-2-yl)phenoxy)acetamide] the “% bioavailability after phase 1 (pepsin digestion)” value [1] was 9.98% and 9.98 ± 0.10%, the “% bioavailability after phase 2 (pancreatin digestion)” value [1] was 9.30% and 9.30 ± 0.09% and the “Total in vitro bioavailability” value [1] was 19.28% and 19.28 ± 0.19%. It also gave an IC50 [2] of 93.7 µM.

With `NC(=O)COc1cc(O)c2c(=O)cc(-c3ccc(OCC(N)=O)c(OCC(N)=O)c3)oc2c1` [Compound 15, 2,2′-((4-(7-(2-amino-2-oxoethoxy)-5-hydroxy-4-oxo-4H-chromen-2-yl)-1,2-phenylene)bis(oxy))diacetamide] the “% bioavailability after phase 1 (pepsin digestion)” value [1] was 12.51% and 12.51 ± 0.02%, the “% bioavailability after phase 2 (pancreatin digestion)” value [1] was 18.01% and 18.01 ± 0.26% and the “Total in vitro bioavailability” value [1] was 30.51% and 30.51 ± 0.27%. For the same compound, the IC50 [2] was 47.1 µM.
